Source: patent publication US9394285B2 (Pfizer Inc., priority 2013, dated 2016)
pEC50: −log10 of the molar value. Where “and” joins values, the source holds several entries; their conditions need not be identical. Equal entries are not always repeated.

How the values were obtained:
[1] = target: human AMPK (full-length γ1, β1 and α1 subunits) (Homo sapiens (Human), UniProt Q13131+Q9Y478); test: AMPK in vitro biochemical assay (33P-based, SAMS peptide, PP2A dephosphorylation); conditions: for pEC50: activation of phosphorylated AMPK, 33P-ATP, SAMS peptide, PP2A treatment, 4-parameter fit; for Emax: read-out: Maximum
Sequence of human AMPK (full-length γ1, β1 and α1 subunits) (Q13131 whole entry): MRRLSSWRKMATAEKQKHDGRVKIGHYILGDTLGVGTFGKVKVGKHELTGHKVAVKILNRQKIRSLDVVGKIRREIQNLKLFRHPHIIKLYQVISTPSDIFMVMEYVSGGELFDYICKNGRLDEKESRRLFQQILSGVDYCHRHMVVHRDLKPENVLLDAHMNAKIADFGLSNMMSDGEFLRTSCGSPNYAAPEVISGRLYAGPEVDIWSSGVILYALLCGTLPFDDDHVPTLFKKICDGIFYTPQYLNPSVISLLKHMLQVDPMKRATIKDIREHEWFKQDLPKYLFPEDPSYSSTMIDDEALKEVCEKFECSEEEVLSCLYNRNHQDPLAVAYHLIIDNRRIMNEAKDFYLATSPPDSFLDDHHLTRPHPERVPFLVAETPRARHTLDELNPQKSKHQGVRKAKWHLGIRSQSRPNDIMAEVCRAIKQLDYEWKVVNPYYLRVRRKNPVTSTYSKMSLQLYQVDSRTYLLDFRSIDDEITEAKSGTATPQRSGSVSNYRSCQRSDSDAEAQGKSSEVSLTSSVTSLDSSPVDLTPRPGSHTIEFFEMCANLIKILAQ
Sequence of human AMPK (full-length γ1, β1 and α1 subunits) (Q9Y478 whole entry): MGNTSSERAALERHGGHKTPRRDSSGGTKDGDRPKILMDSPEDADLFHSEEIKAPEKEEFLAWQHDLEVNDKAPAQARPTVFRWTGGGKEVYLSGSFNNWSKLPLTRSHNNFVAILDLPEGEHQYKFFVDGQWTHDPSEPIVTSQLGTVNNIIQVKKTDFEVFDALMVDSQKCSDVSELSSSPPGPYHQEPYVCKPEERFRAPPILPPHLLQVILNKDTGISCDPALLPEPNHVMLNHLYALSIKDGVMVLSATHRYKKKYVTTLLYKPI
Sequence of human AMPK (full-length γ1, β1 and α1 subunits) (P54619 whole entry partner): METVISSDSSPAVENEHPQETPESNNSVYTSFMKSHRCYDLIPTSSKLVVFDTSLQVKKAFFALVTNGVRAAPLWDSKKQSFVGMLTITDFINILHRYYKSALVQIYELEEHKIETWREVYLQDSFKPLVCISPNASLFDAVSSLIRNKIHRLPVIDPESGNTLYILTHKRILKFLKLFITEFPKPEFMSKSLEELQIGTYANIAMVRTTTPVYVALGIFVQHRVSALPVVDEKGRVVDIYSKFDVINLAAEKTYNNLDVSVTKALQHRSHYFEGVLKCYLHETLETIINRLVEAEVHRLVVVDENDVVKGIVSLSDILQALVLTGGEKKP
In short: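 Phosphorylated full-length α1β1γ1 AMPK (E. coli-expressed, His-purified, gel-filtered) preincubated 15 min RT with compound in HEPES pH 7.5, 10 mM MgCl2 buffer, then PP2A added to dephosphorylate pThr172.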

[2] = counts as % of positive control wells (enzyme, allosteric activator or AMP, PP2A and substrate)

Row | Compound | pEC50 [1] | Emax [1, 2] | melting point | Maximum [1, 2]
1 | N#Cc1cc2[nH]cc(C(=O)O)c2cc1-c1ccc(C2(CO)CC2)cc1 [Example 23, 6-cyano-5-{4-[1-(hydroxymethyl)cyclopropyl]phenyl}-1H-indole-3-carboxylic acid] | 7.80 | 88% | 270.9 to 271.6 °C | 
2 | O=C(O)c1n[nH]c2cc(F)c(-c3ccc(C4CCOCC4)cc3)cc12 [Example 130, 6-Fluoro-5-(4-(tetrahydro-2H-pyran-4-yl)phenyl)-1H-indazole-3-carboxylic acid] | 6.52 | 100% | 295 °C | 
3 | O=C(O)c1c[nH]c2cc(Cl)c(-c3ccc(OCc4ncccn4)cc3)cc12 [Example 160, 6-chloro-5-[4-(pyrimidin-2-ylmethoxy)phenyl]-1H-indole-3-carboxylic acid] | 7.76 | 118% |  | 
4 | COc1nc(N2CCC(O)C2)ccc1-c1cc2c(C(=O)O)c[nH]c2cc1Cl (stereo not shown) [Example 161, 6-chloro-5-[6-(3-hydroxypyrrolidin-1-yl)-2-methoxypyridin-3-yl]-1H-indole-3-carboxylic acid] | 8.08 | 92.9% |  | 
5 | O=C(O)c1c[nH]c2cc(Cl)c(-c3ccc(C4(CO)CCC4)cc3F)cc12 [Example 164, 6-chloro-5-{2-fluoro-4-[1-(hydroxymethyl)cyclobutyl]phenyl}-1H-indole-3-carboxylic acid] | 7.76 | 142% |  | 
6 | O=C(O)c1c[nH]c2cc(F)c(-c3ccc(C4(CO)CCC4)cc3F)cc12 [Example 165, 6-fluoro-5-{2-fluoro-4-[1-(hydroxymethyl)cyclobutyl]phenyl}-1H-indole-3-carboxylic acid] | 7.50 | 159% |  | 
7 | O=C(O)c1c[nH]c2cc(F)c(-c3ccc(C4CCOCC4)cc3)c(F)c12 [Example 166, 4,6-difluoro-5-[4-(tetrahydro-2H-pyran-4-yl)phenyl]-1H-indole-3-carboxylic acid] | 6.89 | 107% |  | 
8 | O=C(O)c1c[nH]c2cc(F)c(-c3ccc(C4(CO)CCC4)cc3)c(F)c12 [Example 167, 4,6-difluoro-5-{4-[1-(hydroxymethyl)cyclobutyl]phenyl}-1H-indole-3-carboxylic acid] | 8.03 |  |  | 143.1%
9 | O=C(O)c1c[nH]c2cc(Cl)c(-c3ccc(C4CCCOC4)cc3)cc12 (stereo not shown) [Example 168, 6-chloro-5-[4-(tetrahydro-2H-pyran-3-yl)phenyl]-1H-indole-3-carboxylic acid] | 6.77 | 109% |  | 
10 | COc1nc(N2CCOCC2)ccc1-c1cc2c(C(=O)O)c[nH]c2cc1Cl [Example 174, 6-chloro-5-[2-methoxy-6-(morpholin-4-yl)pyridin-3-yl]-1H-indole-3-carboxylic acid] | 7.82 | 49.4% |  | 
11 | O=C(O)c1c[nH]c2cc(Cl)c(-c3ccc(OCCn4cccn4)cc3)cc12 [Example 180, 6-chloro-5-{4-[2-(1H-pyrazol-1-yl)ethoxy]phenyl}-1H-indole-3-carboxylic acid] | 7.94 | 76.2% |  | 
12 | COc1nc(N2CC[C@H](O)C2)ccc1-c1cc2c(C(=O)O)c[nH]c2cc1Cl [Example 184, 6-chloro-5-{6-[(3S)-3-hydroxypyrrolidin-1-yl]-2-methoxypyridin-3-yl}-1H-indole-3-carboxylic acid] | 8.21 | 84% |  | 
13 | COc1nc(N2CC[C@@H](O)C2)ccc1-c1cc2c(C(=O)O)c[nH]c2cc1Cl [Example 185, 6-chloro-5-{6-[(3R)-3-hydroxypyrrolidin-1-yl]-2-methoxypyridin-3-yl}-1H-indole-3-carboxylic acid] | 8.54 | 106% |  | 
14 | COC1CCN(CCCOc2ccc(-c3cc4c(C(=O)O)c[nH]c4cc3Cl)cc2)CC1 [Example 187, 6-chloro-5-{4-[3-(4-methoxypiperidin-1-yl)propoxy]phenyl}-1H-indole-3-carboxylic acid] | 7.21 | 105% |  | 
15 | CN1CCN(CCCOc2ccc(-c3cc4c(C(=O)O)c[nH]c4cc3Cl)cc2)CC1=O [Example 188, 6-chloro-5-{4-[3-(4-methyl-3-oxopiperazin-1-yl)propoxy]phenyl}-1H-indole-3-carboxylic acid] | 7.28 | 129% |  | 
16 | O=C(O)c1c[nH]c2cc(Cl)c(-c3ccc(OCCCN4CC[C@@H](F)C4)cc3)cc12 [Example 189, 6-chloro-5-(4-{3-[(3R)-3-fluoropyrrolidin-1-yl]propoxy}phenyl)-1H-indole-3-carboxylic acid] | 7.24 | 112% |  | 
17 | O=C(O)c1c[nH]c2cc(F)c(-c3ccc(OCCC4CCOC4)cc3)c(F)c12 (stereo not shown) [Example 190, 4,6-difluoro-5-{4-[2-(tetrahydrofuran-3-yl)ethoxy]phenyl}-1H-indole-3-carboxylic acid] | 6.96 | 108% |  | 
18 | O=C(O)c1c[nH]c2cc(F)c(-c3ccc(OCCC4CCCO4)cc3)c(F)c12 (stereo not shown) [Example 191, 4,6-difluoro-5-{4-[2-(tetrahydrofuran-2-yl)ethoxy]phenyl}-1H-indole-3-carboxylic acid] | 6.92 | 140% |  | 

Results, then the molecule that gave them:

Row | pEC50 [1] | Emax [1, 2] | melting point | Maximum [1, 2] | Compound
19 | 7.52 | 92% | 209.3 to 209.6 °C |  | O=C(O)c1c[nH]c2cc(Cl)c(-c3ccc(OCCCO)cc3)cc12 [Example 30, 6-chloro-5-[4-(3-hydroxypropoxy)phenyl]-1H-indole-3-carboxylic acid]
20 | 6.32 | 46% | 240 °C (dec.) |  | COc1ccc(-c2cc3c(S(=O)(=O)O)c[nH]c3cc2Cl)cc1 [Example 132, 6-Chloro-5-(4-methoxyphenyl)-1H-indole-3-sulfonic acid]
21 | 7.32 | 98.6% |  |  | COC[C@H](C)Oc1ccc(-c2cc3c(C(=O)O)c[nH]c3cc2Cl)cc1 [Example 159, 6-chloro-5-(4-{[(2S)-1-methoxypropan-2-yl]oxy}phenyl)-1H-indole-3-carboxylic acid]
22 | 6.72 | 123% |  |  | CC(C)c1ccc(-c2cc3c(C(=O)O)c[nH]c3cc2Cl)cc1 [Example 162, 6-chloro-5-[4-(propan-2-yl)phenyl]-1H-indole-3-carboxylic acid]
23 | 7.89 and 7.99 | 110% |  |  | CC(C)(CO)c1ccc(-c2cc3c(C(=O)O)c[nH]c3cc2Cl)cc1F [Example 163, 6-chloro-5-[3-fluoro-4-(1-hydroxy-2-methylpropan-2-yl)phenyl]-1H-indole-3-carboxylic acid]
24 | 7.21 | 111% |  |  | COc1cc(-c2cc3c(C(=O)NS(C)(=O)=O)c[nH]c3cc2Cl)ccc1C(C)(C)CO [Example 177, 6-chloro-5-[4-(1-hydroxy-2-methylpropan-2-yl)-3-methoxyphenyl]-N-(methylsulfonyl)-1H-indole-3-carboxamide]
25 | 7.72 | 80% |  |  | O=C(O)c1c[nH]c2cc(Cl)c(-c3ccc(OCC4CCO4)cc3)cc12 (stereo not shown) [Example 182, 6-chloro-5-[4-(oxetan-2-ylmethoxy)phenyl]-1H-indole-3-carboxylic acid]
26 | 7.55 | 87.3% |  |  | CC(CO)Oc1ccc(-c2cc3c(C(=O)O)c[nH]c3cc2Cl)cc1 (stereo not shown) [Example 183, 6-chloro-5-{4-[(1-hydroxypropan-2-yl)oxy]phenyl}-1H-indole-3-carboxylic acid]
27 | 7.07 | 114% |  |  | COc1nc(N(C)CCO)ccc1-c1cc2c(C(=O)O)c[nH]c2cc1Cl [Example 186, 6-chloro-5-{6-[(2-hydroxyethyl)(methyl)amino]-2-methoxypyridin-3-yl}-1H-indole-3-carboxylic acid]
